Assay results reported in patent US11401278B2, “Macrocyclic indole derivatives” (The Broad Institute, Inc., priority 2017, dated 2022).
Structures can show the parent of a compound that is named as a salt.

Columns and labels:
[1] = biological target: BCL-XL (Homo sapiens (Human), UniProt Q07817); test: Protein-protein interaction assay BCL-XL/Bad BH3 peptide (BCL-XL assay, TR-FRET); assay type: binding; settings: His-BCL-XL / Bad BH3 peptide, median
Procedure, shortened: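 His-tagged human BCL-XL (aa 1-212, 1 nM final) was preincubated 10 min at 22 °C with compound (11 concentrations, 0.1 nM–20 μM), then biotinylated Bad BH3 peptide (1 nM) and TR-FRET reagents were added. Incubation: 1 h at 22 °C, then overnight at 4 °C, pH 7 Tris buffer. IC50 from 4-parameter fit of 665/620 ratio.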

[2] = tested on: SUDHL5; test: Induction of caspase-3/7 activity (Assay 4), SUDHL5; assay type: cell-based; settings: caspase-3/7 induction, median
Procedure, shortened: (§1)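 Caspase-3/7 activity measured by Caspase-Glo 3/7 luminescence in DLBCL cells after 3 h compound treatment at 37 °C. Medium-only background subtracted. EC50 fitted with C0 fixed at 1 and top set to the reference compound's plateau/max induction.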

[3] = tested on: SUDHL10; test: Induction of caspase-3/7 activity (Assay 4), SUDHL10; assay type: cell-based; settings: caspase-3/7 induction, median
Procedure, shortened: as §1

[4] = tested on: SUDHL5; test: Antiproliferation assay (Assay 7), SUDHL5; assay type: cell-based; settings: CellTiter-Glo, median, read-out: Antiproli SUDHL5 [M] (median) IC50
Procedure, shortened: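 Cells were exposed to compound for 72 hours at 37° C. Viability was measured by CellTiter-Glo luminescence. A day 0 plate read at the start served as the time-zero reference.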

[5] = tested on: SUDHL5; test: Induction of cytotoxicity (Assay 6), SUDHL5; settings: read-out: Cytotox SUDHL5 [M] (median) IC50, CellTiter-Glo, 5 hours, SUDHL5

Chain of BCL-XL (Q07817 other isoform, or with tags, fused parts or gaps): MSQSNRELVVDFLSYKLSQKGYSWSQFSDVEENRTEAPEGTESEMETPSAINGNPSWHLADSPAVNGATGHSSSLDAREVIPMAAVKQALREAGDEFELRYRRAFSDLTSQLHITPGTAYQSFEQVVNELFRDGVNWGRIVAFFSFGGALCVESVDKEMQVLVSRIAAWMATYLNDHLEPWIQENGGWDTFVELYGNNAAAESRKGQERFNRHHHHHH

Compound | IC50 [1] [µM] | EC50 ([2]; Homo sapiens, SU-DHL-5, 3 h) [µM] | EC50 ([3]; Homo sapiens, SU-DHL10, 3 h) [µM] | IC50 ([4]; Homo sapiens, SU-DHL-5, 72 h) [M] | IC50 ([5]; Homo sapiens, SU-DHL-5, 5 h) [M] | EC50 ([2]; 3 hours) [µM] | EC50 ([3]; 3 hours) [µM] | IC50 ([4]; 72 hours) [M] | IC50 [5] [M]
CCc1c2c(nn1C)CNS(=O)(=O)CCCn1c(C(=O)O)c(CCCOc3cccc4ccccc34)c3cccc-2c31 (racemic) [Example 17, (rac)-12-Ethyl-11-methyl-1-(3-(naphthalen-1-yloxy)propyl)-4,5,6,8,9,11-hexahydropyrazolo[3′,4′:4,5][1,2,8]thiadiazacycloundecino[6,7,8-hi]indole-2-carboxylic acid 7,7-dioxide] | > 20 | 13 | 21 | 4.7e-06 | 9.3e-06 | – | – | – | –
Cc1c2c(nn1C)CN(CCN1CCOCC1)S(=O)(=O)CCCn1c(C(=O)O)c(CCCOc3cccc4ccccc34)c3cccc-2c31 (racemic) [Example 1, (rac)-2,3-Dimethyl-14-[2-(morpholin-4-yl)ethyl]-7-{3-[(naphthalen-1-yl)oxy]propyl}-13,13-dioxo-10,11,12,13,14,15-hexahydro-2H-13λ^6-pyrazolo[3′,4′:4,5][1,2,8]thiadiazacycloundecino-[6,7,8-hi]indole-8-carboxylic acid] | > 20 | 4.8 | 14 | 7.2e-06 | 6.7e-06 | – | – | – | –
Cc1c2c(nn1C)CN(C)S(=O)(=O)CCCn1c(C(=O)O)c(CCCOc3cccc4ccccc34)c3ccc(F)c-2c31 (racemic) [Example 26, (rac)-13-Fluoro-8,11,12-trimethyl-1-(3-(naphthalen-1-yloxy)propyl)-5,6,9,11-tetrahydro-4H,8H-pyrazolo[3′,4′:4,5][1]thia[2,8]diazacycloundecino[6,7,8-hi]indole-2-carboxylic acid 7,7-dioxide] | > 20 | 1.3 | 3.5 | 1.4e-06 | 1.8e-06 | – | – | – | –
CCc1c2c(nn1C)CN(C)S(=O)(=O)CCCn1c(C(=O)O)c(CCCOc3ccc(F)c4ccccc34)c3ccc(F)c-2c31 (racemic) [Example 35, (rac)-12-Ethyl-13-fluoro-1-(34(4-fluoronaphthalen-1-yl)oxy)propyl)-8,11-dimethyl-5,6,9,11-tetrahydro-4H,8H-pyrazolo[3′,4′:4,5][1]thia[2,8]diazacycloundecino[6,7,8-hi]indole-2-carboxylic acid 7,7-dioxide] | > 20 | 1.2 | 2.6 | 7.6e-07 | 1.6e-06 | – | – | – | –
Cc1cc(OCCCc2c(C(=O)O)n3c4c(c(F)ccc24)-c2c(nn(C)c2C)CN(C)S(=O)(=O)CCC3)cc(C)c1Cl (racemic) [Example 28, (rac)-1-(3-(4-Chloro-3,5-dimethylphenoxy)propyl)-13-fluoro-8,11,12-trimethyl-5,6,9,11-tetrahydro-4H,8H-pyrazolo[3′,4′:4,5][1]thia[2,8]diazacycloundecino[6,7,8-hi]indole-2-carboxylic acid 7,7-dioxide] | > 20 | 2 | 11 | 1.2e-06 | 3.1e-06 | – | – | – | –
Cc1c2c(nn1C)CN(CCN1CCOCC1)S(=O)(=O)CCCn1c(C(=O)O)c(CCCOc3cccc4ccccc34)c3cccc-2c31 (single isomer, unassigned; enantiomer 2) [Example 3, 2,3-Dimethyl-14-[2-(morpholin-4-yl)ethyl]-7-{3-[(naphthalen-1-yl)oxy]propyl}-13,13-dioxo-10,11,12,13,14,15-hexahydro-2H-13λ^6-pyrazolo[3′,4′:4,5][1,2,8]thiadiazacycloundecino-[6,7,8-hi]indole-8-carboxylic acid-N-ethylethanamine salt (Enantiomer 2)] | > 20 | – | – | – | – | > 33 | > 33 | 1.5e-05 | > 3.3e-05
CCc1c2c(nn1C)C(CCC1CCOCC1)N(C)S(=O)(=O)CCCn1c(C(=O)O)c(CCCOc3cccc4cc(F)ccc34)c3ccc(Cl)c-2c31 (single isomer, unassigned; enantiomer 3) [Example 63, (+)-4-chloro-3-ethyl-7-{3-[(6-fluoronaphthalen-1-yl)oxy]propyl}-2,14-dimethyl-15-[2-(oxan-4-yl)ethyl]-13,13-dioxo-10,11,12,13,14,15-hexahydro-2H-13lambda^6-pyrazolo[3′,4′:4,5][1,2,8]thiadiazacycloundecino[6,7,8-hi]indole-8-carboxylic acid (Enantiomer 3)] | 19 | – | – | – | – | 0.04 | 0.042 | 7e-08 | 4.5e-08
CCc1c2c(nn1C)CN(C)S(=O)(=O)CCCn1c(C(=O)O)c(CCCOc3cccc4c3CCCC4)c3ccc(F)c-2c31 (racemic) [Example 34, (rac)-12-Ethyl-13-fluoro-8,11-dimethyl-1-(3-((5,6,7,8-tetrahydronaphthalen-1-yl)oxy)propyl)-5,6,9,11-tetrahydro-4H,8H-pyrazolo[3′,4′:4,5][1]thia[2,8]diazacycloundecino[6,7,8-hi]indole-2-carboxylic acid 7,7-dioxide] | > 20 | 1.3 | 3.6 | 8.2e-07 | 1.4e-06 | – | – | – | –
Cc1c2c(nn1C)CN(C)S(=O)(=O)CCCn1c(C(=O)O)c(CCCOc3cccc4cc(F)ccc34)c3ccc(F)c-2c31 (single isomer, unassigned; enantiomer 1) [Example 38, (−)-4-fluoro-7-{3-[(6-fluoronaphthalen-1-yl)oxy]propyl}-2,3,14-trimethyl-13,13-dioxo-10,11,12,13,14,15-hexahydro-2H-13lambda^6-pyrazolo[3′,4′:4,5][1,2,8]thiadiazacycloundecino-[6,7,8-hi]indole-8-carboxylic acid (Enantiomer 1)] | > 20 | – | – | – | – | 20 | 22 | 7.8e-06 | 1.7e-05
Cc1c2c(nn1C)CN(C)S(=O)(=O)CCCn1c(C(=O)O)c(CCCOc3cccc4cc(F)ccc34)c3ccc(F)c-2c31 (racemic) [Example 25, (rac)-13-Fluoro-1-(3-((6-fluoronaphthalen-1-yl)oxy)propyl)-8,11,12-trimethyl-5,6,9,11-tetrahydro-4H,8H-pyrazolo[3′,4′:4,5][1]thia[2,8]diazacycloundecino[6,7,8-hi]indole-2-carboxylic acid 7,7-dioxide] | > 20 | 0.67 | 1.5 | 4.1e-07 | 7.5e-07 | – | – | – | –
Cc1c2c(nn1C)CN(C)S(=O)(=O)CCCn1c(C(=O)O)c(CCCOc3cccc4c3CCC4)c3ccc(F)c-2c31 (racemic) [Example 27, (rac)-1-(3-((2,3-Dihydro-1H-inden-4-yl)oxy)propyl)-13-fluoro-8,11,12-trimethyl-5,6,9,11-tetrahydro-4H,8H-pyrazolo[3′,4′:4,5][1]thia[2,8]diazacycloundecino[6,7,8-hi]indole-2-carboxylic acid 7,7-dioxide] | > 20 | 0.7 | 2.4 | 7.8e-07 | 8.7e-07 | – | – | – | –
CCc1c2c(nn1C)CN(CCCN1CCOCC1)S(=O)(=O)CCCn1c(C(=O)O)c(CCCOc3cccc4ccccc34)c3cccc-2c31 (racemic) [Example 15, (rac)-12-Ethyl-11-methyl-8-(3-morpholinopropyl)-1-(3-(naphthalen-1-yloxy)propyl)-4,5,6,8,9,11-hexahydropyrazolo[3′,4′:4,5][1,2,8]thiadiazacycloundecino[6,7,8-hi]indole-2-carboxylic acid 7,7-dioxide 2,2,2-trifluoroacetic acid salt] | > 20 | 2.5 | 6.4 | 1.8e-06 | 2.9e-06 | – | – | – | –
